Legend:
[1] = target: T1, Bromodomain-containing protein 4 (Homo sapiens, UniProt O60885); experiment: Binding affinity to His-tagged BRD4 bromodomain 1 to 2 (K57 to K550 amino acids) (unknown origin) using Alexa647-labeled BET-inhibitor as fluorescent probe by bromodomain TR-FRET binding assay; assay type: single protein
[2] = tested on: MX1; experiment: Antiproliferative activity against human MX1 cells incubated for 72 hrs by cell-titer Glo assay; assay type: functional, cell-based; settings: MX1, 72 h
[3] = target: T1, Bromodomain-containing protein 4; experiment: Binding affinity to BRD4 in human H1299 cells stably expressing E2 and HPV16-LCR luciferase reporter incubated for 24 hrs by Bright-Glo luciferase reporter gene assay based BRD4 engagement assay; assay type: cell-based
[4] = Intrinsic unbound clearance in human liver microsomes; assay type: ADME, microsome
[5] = Intrinsic unbound clearance in mouse liver microsomes; assay type: ADME, microsome
[6] = Permeability of the compound by PAMPA method; assay type: ADME; settings: read-out: permeability
[7] = tested on: Mus musculus; experiment: Unbound clearance in mouse at 10 mg/kg, po; assay type: ADME, organism-based; settings: in vivo
[8] = AUC in mouse at 10 mg/kg, po; assay type: ADME, organism-based; settings: in vivo
[9] = Oral bioavailability in mouse at 10 mg/kg; assay type: ADME, organism-based; settings: in vivo

Compound	Ki [1] [nM]	IC50 [3] [nM]	CL free [4] [mL/min/kg]	CL free [5] [mL/min/kg]	Papp [6] [×10⁻⁶ cm/s]	CL free [7] [mL/min/kg]	AUC [8] [µM·h]	bioavailability [9] [%]	EC50 [2] [nM]
Cn1cc2c3c(c[nH]c3c1=O)CN(C1CCC(F)(F)CC1)c1ccc(CS(C)(=O)=O)cc1-2	4.7	3.7	67	267	7.3	4830	0.13	48	1.4
Cn1cc(-c2cc(S(C)(=O)=O)ccc2NCC2CC2)c2cc[nH]c(=O)c21	80	150	–	–	–	–	–	–	140
Cn1cc2c3c(c[nH]c3c1=O)CN(CC1CC1)c1ccccc1-2	16	23	–	–	–	–	–	–	7.3
Cn1cc2c3c(c[nH]c(=O)c31)CN(CC1CC1)c1ccccc1-2	43	95	–	–	–	–	–	–	57
Cn1cc2c3c(c[nH]c(=O)c31)CN(CC1CC1)c1ccc(CS(C)(=O)=O)cc1-2	12	23	< 45	< 130	2.5	733	0.64	23	19
Cn1cc(-c2cc(CS(C)(=O)=O)ccc2NCC2CC2)c2cc[nH]c2c1=O	–	–	–	–	–	–	–	–	43
Cn1cc2c3c(c[nH]c3c1=O)CN(CC1CC1)c1ccc(S(C)(=O)=O)cc1-2	26	28	–	–	–	–	–	–	15
Cn1cc(-c2ccccc2NCC2CC2)c2cc[nH]c2c1=O	–	–	–	–	–	–	–	–	1400
Cn1cc2c3c(c[nH]c3c1=O)CN(CC1CC1)c1ccc(CS(C)(=O)=O)cc1-2	8.4	4.6	183	300	4.3	450	0.16	8.2	2
Cn1cc(-c2cc(CS(C)(=O)=O)ccc2NCC2CC2)c2cc[nH]c(=O)c21	220	200	–	–	–	–	–	–	140
Cn1cc(-c2cc(S(C)(=O)=O)ccc2NCC2CC2)c2cc[nH]c2c1=O	–	–	–	–	–	–	–	–	17
CCC(=O)N1Cc2c[nH]c3c(=O)n(C)cc(c23)-c2cc(CS(C)(=O)=O)ccc21	7.3	9	–	–	–	–	–	–	4.7
Cn1cc2c3c(c[nH]c3c1=O)CN(c1ccc(F)cc1)c1ccc(CS(C)(=O)=O)cc1-2	0.87	1.5	< 41.7	1400	6.6	5170	0.67	23	0.72
Cn1cc2c3c(c[nH]c3c1=O)CN(C(=O)C1CC1)c1ccc(CS(C)(=O)=O)cc1-2	7.1	21	–	–	–	–	–	–	7.8
Cn1cc(-c2ccccc2NCC2CC2)c2cc[nH]c(=O)c21	1500	5000	–	–	–	–	–	–	3300
CCS(=O)(=O)Nc1ccc(Oc2ccc(F)cc2F)c(-c2cn(C)c(=O)c3[nH]ccc23)c1 [MIVEBRESIB]	–	20	–	–	–	–	–	–	–

Second part, led by results:

Ki [1] [nM]	IC50 [3] [nM]	CL free [4] [mL/min/kg]	CL free [5] [mL/min/kg]	Papp [6] [×10⁻⁶ cm/s]	CL free [7] [mL/min/kg]	AUC [8] [µM·h]	bioavailability [9] [%]	Compound	EC50 [2] [nM]
4.8	4.3	–	–	–	–	–	–	CCS(=O)(=O)Nc1ccc2c(c1)-c1c[nH]c(=O)c3c1c(cn3C)CN2c1ccc(F)cc1	5.6
17	48	–	–	–	–	–	–	COC(=O)N1Cc2cn(C)c3c(=O)[nH]cc(c23)-c2cc(CS(C)(=O)=O)ccc21	78
2.9	2.3	65	140	5.9	–	1.2	–	Cn1cc2c3c(c[nH]c(=O)c31)-c1cc(CS(C)(=O)=O)ccc1N(c1ccccn1)C2	5.5
2.7	18	–	–	–	–	–	–	CCS(=O)(=O)Nc1ccc2c(c1)-c1c[nH]c(=O)c3c1c(cn3C)CN2c1ccccn1	4.9
7.7	31	–	–	–	–	–	–	Cn1cc2c3c(c[nH]c(=O)c31)-c1cc(CS(C)(=O)=O)ccc1N(C(=O)C1CC1)C2	16
180	190	–	–	–	–	–	–	Cn1cc2c3c(c[nH]c(=O)c31)CN(CC1CC1)c1ccc(S(C)(=O)=O)cc1-2	140
2.7	6.5	–	–	–	–	–	–	Cn1cc2c3c(c[nH]c(=O)c31)-c1cc(CS(C)(=O)=O)ccc1N(c1ccc(F)cc1F)C2	4
4.4	32	–	–	–	–	–	–	CCS(=O)(=O)Nc1cnc2c(c1)-c1c[nH]c(=O)c3c1c(cn3C)CN2c1ccc(F)cc1F	18
4.1	4.1	–	–	–	–	–	–	CCS(=O)(=O)Nc1cnc2c(c1)-c1cn(C)c(=O)c3[nH]cc(c13)CN2c1ccc(F)cc1F	7

Reference: ChEMBL document CHEMBL4190379 (Bioorg Med Chem Lett, 2018)
